Results from ChEMBL document CHEMBL3045332, “Synthesis of some new 2,6-disubstituted-3(2H)-pyridazinone derivatives and investigation of their analgesic, anti-inflammatory and antimicrobial activities” (Med Chem Res, 2013).
In brackets after ≈: the same amount, converted by molar mass.

Legend:
Pichia kudriavzevii = assay: Antifungal activity against Pichia kudriavzevii ATCC 6258 after 48 hr by two-fold serial dilution method; type: functional; details: ATCC 6258, 48 h
Candida albicans = assay: Antifungal activity against Candida albicans ATCC 10231 after 48 hr by two-fold serial dilution method; type: functional; details: ATCC 10231, 48 h
Pseudomonas aeruginosa [1] = assay: Antibacterial activity against Pseudomonas aeruginosa cloinical isolate after 24 hr by two-fold serial dilution method; type: functional
Pseudomonas aeruginosa [2] = assay: Antibacterial activity against Pseudomonas aeruginosa ATCC 27853 after 24 hr by two-fold serial dilution method; type: functional; details: ATCC 27853, 24 h
Escherichia coli [3] = assay: Antibacterial activity against Escherichia coli clinical isolate expressing extended spectrum beta-lactamase after 24 hr by two-fold serial dilution method; type: functional
Escherichia coli [4] = assay: Antibacterial activity against Escherichia coli ATCC 25922 after 24 hr by two-fold serial dilution method; type: functional; details: ATCC 25922, 24 h
Enterococcus faecalis [5] = assay: Antibacterial activity against Enterococcus faecalis clinical isolate after 24 hr by two-fold serial dilution method; type: functional
Enterococcus faecalis [6] = assay: Antibacterial activity against Enterococcus faecalis ATCC 29212 after 24 hr by two-fold serial dilution method; type: functional; details: ATCC 29212, 24 h
Staphylococcus aureus [7] = assay: Antibacterial activity against methicillin-resistant Staphylococcus aureus clinical isolate after 24 hr by two-fold serial dilution method; type: functional
Staphylococcus aureus [8] = assay: Antibacterial activity against Staphylococcus aureus ATCC 29213 after 24 hr by two-fold serial dilution method; type: functional; details: ATCC 29213, 24 h
Mus musculus [9] = assay: Anti-inflammatory activity in Swiss albino Mus musculus (mouse) assessed as inhibition of carrageenan-induced paw edema at 100 mg/kg, po administered 60 min prior to crrageenan-challenge measured at 360 min relative to control; type: functional
Mus musculus [10] = assay: Anti-inflammatory activity in Swiss albino Mus musculus (mouse) assessed as inhibition of carrageenan-induced paw edema at 100 mg/kg, po administered 60 min prior to crrageenan-challenge measured at 270 min relative to control; type: functional
Mus musculus [11] = assay: Ulcerogenic activity in p-benzoquinone-challenged Swiss albino Mus musculus (mouse) at 100 mg/kg, po administered 60 min prior to p-benzoquinone-challenge by microscopic analysis; type: toxicity, organism-based; design: dose 100 mg/kg, route oral; details: in vivo, 1 h
Mus musculus [12] = assay: Analgesic activity in Swiss albino Mus musculus (mouse) assessed as inhibition of p-benzoquinone-induced writhing at 100 mg/kg, po administered 60 min prior to p-benzoquinone-challenge measured up to 15 min relative to control; type: functional
Mus musculus [13] = assay: Anti-inflammatory activity in Swiss albino Mus musculus (mouse) assessed as inhibition of carrageenan-induced paw edema at 100 mg/kg, po administered 60 min prior to crrageenan-challenge measured at 180 min relative to control; type: functional
Mus musculus [14] = assay: Anti-inflammatory activity in Swiss albino Mus musculus (mouse) assessed as inhibition of carrageenan-induced paw edema at 100 mg/kg, po administered 60 min prior to crrageenan-challenge measured at 90 min relative to control; type: functional

Row | Structure (SMILES) | MIC (Pichia kudriavzevii) | MIC (Candida albicans) | MIC (Pseudomonas aeruginosa [1]) | MIC (Pseudomonas aeruginosa [2]) | MIC (Escherichia coli [3]) | MIC (Escherichia coli [4]) | MIC (Enterococcus faecalis [5]) | MIC (Enterococcus faecalis [6]) | MIC (Staphylococcus aureus [7]) | MIC (Staphylococcus aureus [8]) | inhibition in vivo at 100 mg/kg (Mus musculus [9]) | inhibition in vivo at 100 mg/kg (Mus musculus [10]) | Activity (Mus musculus [11]) | inhibition in vivo at 100 mg/kg (Mus musculus [12]) | inhibition in vivo at 100 mg/kg (Mus musculus [13]) | inhibition in vivo at 100 mg/kg (Mus musculus [14])
1 | O=c1ccc(-c2ccccc2)nn1CCN1CCN(c2ccccc2)CC1 | 32 µg/mL (≈ 88.8 µM) | 32 µg/mL (≈ 88.8 µM) | 64 µg/mL (≈ 178 µM) | 64 µg/mL (≈ 178 µM) | 64 µg/mL (≈ 178 µM) | 64 µg/mL (≈ 178 µM) | 64 µg/mL (≈ 178 µM) | 64 µg/mL (≈ 178 µM) | 128 µg/mL (≈ 355 µM) | 64 µg/mL (≈ 178 µM) | 3.1% | 6.4% | Non-toxic | 10.7% |  | 
2 | COc1ccc(N2CCN(CCn3nc(-c4ccccc4)ccc3=O)CC2)cc1 | 32 µg/mL (≈ 81.9 µM) | 32 µg/mL (≈ 81.9 µM) | 64 µg/mL (≈ 164 µM) | 64 µg/mL (≈ 164 µM) | 64 µg/mL (≈ 164 µM) | 64 µg/mL (≈ 164 µM) | 64 µg/mL (≈ 164 µM) | 64 µg/mL (≈ 164 µM) | 128 µg/mL (≈ 328 µM) | 64 µg/mL (≈ 164 µM) |  |  | Non-toxic | 8.6% |  | 
3 | COc1ccc(-c2ccc(=O)n(CCN3CCN(c4ccccc4)CC3)n2)cc1 | 32 µg/mL (≈ 81.9 µM) | 32 µg/mL (≈ 81.9 µM) | 64 µg/mL (≈ 164 µM) | 64 µg/mL (≈ 164 µM) | 64 µg/mL (≈ 164 µM) | 64 µg/mL (≈ 164 µM) | 64 µg/mL (≈ 164 µM) | 64 µg/mL (≈ 164 µM) | 128 µg/mL (≈ 328 µM) | 64 µg/mL (≈ 164 µM) |  |  | Non-toxic | 18.4% | 12.6% | 11.9%
4 | COc1ccc(-c2ccc(=O)n(CCN3CCN(c4ccc(F)cc4)CC3)n2)cc1 | 32 µg/mL (≈ 78.3 µM) | 32 µg/mL (≈ 78.3 µM) | 64 µg/mL (≈ 157 µM) | 64 µg/mL (≈ 157 µM) | 64 µg/mL (≈ 157 µM) | 64 µg/mL (≈ 157 µM) | 64 µg/mL (≈ 157 µM) | 64 µg/mL (≈ 157 µM) | 128 µg/mL (≈ 313 µM) | 64 µg/mL (≈ 157 µM) | 18.3% | 22.9% | Toxic | 47.6% | 15.5% | 16.2%
5 | COc1ccc(-c2ccc(=O)n(CCN3CCN(c4ccc(OC)cc4)CC3)n2)cc1 | 32 µg/mL (≈ 76.1 µM) | 32 µg/mL (≈ 76.1 µM) | 64 µg/mL (≈ 152 µM) | 64 µg/mL (≈ 152 µM) | 64 µg/mL (≈ 152 µM) | 64 µg/mL (≈ 152 µM) | 64 µg/mL (≈ 152 µM) | 64 µg/mL (≈ 152 µM) | 128 µg/mL (≈ 304 µM) | 64 µg/mL (≈ 152 µM) | 7.9% | 13.6% | Non-toxic | 5.6% |  | 
6 | O=c1ccc(-c2ccc(Cl)cc2)nn1CCN1CCN(c2ccccc2)CC1 | 32 µg/mL (≈ 81 µM) | 32 µg/mL (≈ 81 µM) | 64 µg/mL (≈ 162 µM) | 64 µg/mL (≈ 162 µM) | 64 µg/mL (≈ 162 µM) | 64 µg/mL (≈ 162 µM) | 64 µg/mL (≈ 162 µM) | 64 µg/mL (≈ 162 µM) | 128 µg/mL (≈ 324 µM) | 64 µg/mL (≈ 162 µM) |  | 7.4% | Non-toxic | 20.1% | 1.4% | 
7 | O=c1ccc(-c2ccc(Cl)cc2)nn1CCN1CCN(c2ccc(Cl)cc2)CC1 | 32 µg/mL (≈ 74.5 µM) | 32 µg/mL (≈ 74.5 µM) | 64 µg/mL (≈ 149 µM) | 64 µg/mL (≈ 149 µM) | 64 µg/mL (≈ 149 µM) | 64 µg/mL (≈ 149 µM) | 64 µg/mL (≈ 149 µM) | 64 µg/mL (≈ 149 µM) | 128 µg/mL (≈ 298 µM) | 64 µg/mL (≈ 149 µM) | 28.2% | 31% | Non-toxic | 53.2% | 29.7% | 20.6%
8 | O=c1ccc(-c2ccc(Cl)cc2)nn1CCN1CCN(c2ccc(F)cc2)CC1 | 32 µg/mL (≈ 77.5 µM) | 32 µg/mL (≈ 77.5 µM) | 64 µg/mL (≈ 155 µM) | 64 µg/mL (≈ 155 µM) | 64 µg/mL (≈ 155 µM) | 64 µg/mL (≈ 155 µM) | 64 µg/mL (≈ 155 µM) | 64 µg/mL (≈ 155 µM) | 128 µg/mL (≈ 310 µM) | 64 µg/mL (≈ 155 µM) | 28.8% | 35.3% | Non-toxic | 57.5% | 28.3% | 29.5%
9 | COc1ccc(N2CCN(CCn3nc(-c4ccc(Cl)cc4)ccc3=O)CC2)cc1 | 32 µg/mL (≈ 75.3 µM) | 32 µg/mL (≈ 75.3 µM) | 64 µg/mL (≈ 151 µM) | 64 µg/mL (≈ 151 µM) | 64 µg/mL (≈ 151 µM) | 64 µg/mL (≈ 151 µM) | 64 µg/mL (≈ 151 µM) | 64 µg/mL (≈ 151 µM) | 128 µg/mL (≈ 301 µM) | 64 µg/mL (≈ 151 µM) | 15.5% | 18.5% | Non-toxic | 30.2% | 12.3% | 4.7%
10 | C[C@@H]1[C@H](O)[C@@H](C)/C=C/C=C/C=C/C=C/C=C/C=C/C=C/[C@H](O[C@@H]2O[C@H](C)[C@@H](O)[C@H](N)[C@@H]2O)C[C@@H]2O[C@](O)(C[C@@H](O)C[C@@H](O)[C@H](O)CC[C@@H](O)C[C@@H](O)CC(=O)O[C@H]1C)C[C@H](O)[C@H]2C(=O)O [AMPHOTERICIN B] | 0.5 µg/mL (≈ 0.541 µM) | < 0.25 µg/mL |  |  |  |  |  |  |  |  |  |  |  |  |  | 
11 | CC1(C)S[C@@H]2[C@H](NC(=O)[C@H](N)c3ccccc3)C(=O)N2[C@H]1C(=O)O [AMPICILLIN] |  |  |  |  | 64 µg/mL (≈ 183 µM) | 8 µg/mL (≈ 22.9 µM) | 4 µg/mL (≈ 11.4 µM) | 2 µg/mL (≈ 5.72 µM) | 32 µg/mL (≈ 91.6 µM) | 2 µg/mL (≈ 5.72 µM) |  |  |  |  |  | 
12 | CC(=O)Oc1ccccc1C(=O)O [ASPIRIN] |  |  |  |  |  |  |  |  |  |  |  |  | Toxic | 45.9% |  | 
13 | OC(Cn1cncn1)(Cn1cncn1)c1ccc(F)cc1F [FLUCONAZOLE] | 64 µg/mL (≈ 209 µM) | 1 µg/mL (≈ 3.27 µM) |  |  |  |  |  |  |  |  |  |  |  |  |  | 
14 | CC1COc2c(N3CCN(C)CC3)c(F)cc3c(=O)c(C(=O)O)cn1c23 (stereo not given) [OFLOXACIN] |  |  | 32 µg/mL (≈ 88.6 µM) |  | 16 µg/mL (≈ 44.3 µM) |  | 2 µg/mL (≈ 5.53 µM) | 1 µg/mL (≈ 2.77 µM) | 2 µg/mL (≈ 5.53 µM) | 0.5 µg/mL (≈ 1.38 µM) |  |  |  |  |  | 
